Source: article PMC7956560, “New 3-Aryl-2-(2-thienyl)acrylonitriles with High Activity Against Hepatoma Cells” (International Journal of Molecular Sciences, 2021)

How the values were obtained:
[1] = test system: caspase-3 activity of HepG2 cells; assay: Apoptosis-specific caspase-3 activity; assay type: cell-based, human; conditions: HepG2, 1 and 10 µM, 24 h
Experimental: Changes in caspase-3 activity were measured by the cleavage of the fluorogenic substrate AC-DEVD-AMC (EMD Millipore, Billerica, MA, USA), as described previously. After 24 h of incubation with 1a, 1b, 1c, 1e and sorafenib (1 and 10 µM) the cells were harvested and lysed with lysis buffer. Subsequently, the lysates were incubated for 1 h at 37 °C with a substrate solution containing 20 μg/mL AC-DEVD-AMC, 20 mM HEPES, 10% glycerol and 2 mM DTT at pH 7.5. Substrate cleavage was measured fluorometrically using a Varioskan Flash Fluorometer (Thermo Fisher Scientific, Waltham, MA, USA; filter sets: ex 360/40 nm, em 460/10 nm). n = 3 independent measurements were performed in triplicate, and data are given as the mean percentage increase ± SD above control, which was set 100%.

[2] = test system: human HepG2 hepatoblastoma cells; assay: Growth inhibition, crystal violet staining, HepG2; assay type: cell-based; conditions: 48 h incubation, mean ± SD, read-out: Anti-proliferative activity IC50, HepG2
Experimental: The well-differentiated p53 wild-type human hepatoblastoma cell line HepG2 (ATCC# 8065) and the highly differentiated p53 mutated human hepatocellular carcinoma cell line Huh-7 (JCRB#0403) were grown in RPMI 1640 medium supplemented with 10% fetal bovine serum and 100 U/mL penicillin and […] streptomycin. Murine AML-12 hepatocytes were obtained from ATCC (CRL-2254) and grown in DMEM/F-12 Glutamax medium supplemented with 10% fetal bovine serum, 10 µg/mL insulin, 5.5 µg/mL transferrin, 5 ng/mL selenium (Gibco ITS-G 100X) and 40 ng/mL dexamethasone (Sigma-Aldrich). All cell lines were incubated in a 37 °C, 5% CO2, 95% humidified atmosphere.
Treatment-induced changes in cell number were evaluated by crystal violet staining, as previously described. Briefly, 1.500 cells per well were seeded in 96-well plates for 24 h at 37 °C, 5% CO2. For the experiments with HepG2 and Huh-7 cell lines, cells were incubated with rising concentrations (0–20 µM) of the new compounds (1a–1o) for 48 h. AML12-cells were treated with compounds 1a, 1b, 1c, 1e, 1i and 1j for 48 h and at concentrations ranging from 0.5–64 µM. Thereafter, the cells were fixed with 1% glutaraldehyde and stained with 0.1% crystal violet (Sigma-Aldrich). The unbound dye was removed by rinsing with water. Bound crystal violet was solubilized with 0.2% Triton X-100 (Sigma-Aldrich). Light extinction of crystal violet, which increases linearly with cell number, was analyzed at 570 nm using an ELISA-Reader (Dynex Technologies, Denkendorf, Germany). All experiments were carried out in duplicate or triplicate.

HepG2 cells = assay: Colony-formation assay; assay type: cell-based, human
Experimental: HepG2 cells were seeded in 6-well plates at a density of 300 cells/well and allowed to attach overnight. […] Then, the plates were washed twice with PBS, fixed with 4% formaldehyde for 1 h, and stained with 0.5% crystal violet for 3 min. Excessive crystal violet was washed out and the colonies were counted under the microscope. A colony was defined as a cell aggregate with 50 or more cells. Representative images were taken with a kappa digital camera system (Kappa Optronics GmbH, Germany). A total of n = 3 experiments were performed, and significance was tested by one-way ANOVA assays.

For `COc1ccc(C=C(C#N)c2cccs2)cc1O` [Compound 1c, 2-[1-Cyano-2-(3-hydroxy-4-methoxyphenyl)-(E)-ethenyl)]-thiophene], the “caspase-3 activity (in words)” value [1] was “dose-dependently induced caspase-3 activity”, the IC50 [2] was 0.55 ± 0.26 µM and the “effect on HepG2 colony formation (in words)” value (HepG2 cells; 1, 5, 10 µM, 14 days) was “significantly inhibited HepG2 colony formation”. The “inhibition of colony formation” value (HepG2 cells; HepG2, after two weeks) was ~100%.
